Test results from paper PMC12486152, “Design, modular synthesis and screening of 58 shape-diverse 3-D fragments” (Chemical Science, 2025).

Target: T1, N-acetylglucosaminyltransferase V (MGATV) (Homo sapiens, UniProt Q09328)
T1 construct: gene MGAT5
Experiment: X-ray crystal structure by soaking; also thermal shift, STD NMR and enzyme (UDP-Glo) inhibition (IC50, n = […])
Assay type: biochemical

T1 sequence (Q09328 214-741): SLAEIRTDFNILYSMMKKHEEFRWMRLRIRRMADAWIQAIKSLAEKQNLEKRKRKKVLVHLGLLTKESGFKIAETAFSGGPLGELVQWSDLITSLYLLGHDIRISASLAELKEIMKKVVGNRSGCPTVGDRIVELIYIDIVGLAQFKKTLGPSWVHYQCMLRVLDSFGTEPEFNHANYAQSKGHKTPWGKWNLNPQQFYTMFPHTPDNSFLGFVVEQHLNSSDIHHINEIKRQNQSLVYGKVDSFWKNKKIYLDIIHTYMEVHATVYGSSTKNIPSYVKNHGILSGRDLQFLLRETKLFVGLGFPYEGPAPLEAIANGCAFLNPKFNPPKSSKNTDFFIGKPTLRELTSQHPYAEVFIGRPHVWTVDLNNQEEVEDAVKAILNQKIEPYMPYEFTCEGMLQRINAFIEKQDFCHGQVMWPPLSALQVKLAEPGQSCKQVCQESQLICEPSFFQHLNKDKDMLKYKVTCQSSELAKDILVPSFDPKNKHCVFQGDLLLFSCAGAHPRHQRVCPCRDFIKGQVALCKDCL

CC(=O)N1CCCC(C(=O)O)(c2ccc(C)cc2)C1 (racemic) [8p]
IC50: ~4.4 mM
